Source: patent US20210106567A1, “COMPOSITIONS AND METHODS FOR INHIBITING CARP-1 BINDING TO NEMO” (United States Government As Represented By The Department …, priority 2019, published 2021)
Ends that are not written are not given here.

How the values were obtained:
MDA-MB-468 TNBC cells = experiment: MTT cell viability, SNI-1 analogs; type: cell-based, human; settings: 24 h
Method: FIGS. 22A-B show SNI-1 analogs enhance Adriamycin inhibition of TNBC cell growth. FIGS. 22A-B show cells treated with indicated dose of noted agent for 24 h, and their viabilities determined by MTT assay. Columns represent means of three independent experiments; bars, SE.
MDA-MB-468 TNBC cells were next treated with each of the analog in vitro as a single agent or in combination with Adriamycin in vitro.

[1] = tested on: parental and chemo-resistant human and murine TNBC cells and parental renal cancer cells; experiment: Cytokine ELISA of culture media, chemotherapy-induced secretion; type: cell-based; settings: single agent
[2] = molecular target: T1, Flag-CARP-1 (546-580) binding with Biotin-NEMO (221-261) (Homo sapiens, UniProt Q8IX12); experiment: AlphaLISA assay of CARP-1/NEMO peptide binding (HTS format); settings: read-out: IC50, inhibition of binding of CARP-1 (546-580) with NEMO (221-261) peptide
T1 construct: Flag-tagged CARP-1 (546-580); purchased Peptides America, Fairfax, Va; host or cells: chemical synthesis
Text: The predicted kinetics of interaction of CARP-1 (551-600; SEQ ID NO: 5) and NEMO (221-261; SEQ ID NO: 2) epitopes was further validated by utilizing respective, chemically synthesized peptides to determine their in-solution binding by SPR technology (Sekhar et al. (2019) Cancers (Basel) 11). […] On the collective basis of the data in FIG. 1, and biophysical and SPR data above, in vitro binding assays were developed utilizing chemically synthesized CARP-1 and NEMO peptides. In the first instance, CARP-1 (551-580; SEQ ID NO: 6) and NEMO (221-261; SEQ ID NO: 2) peptides were used to carry out buffer optimization and DMSO tolerance of the assay. […] Presence of 0.01% tween minimizes non-specific binding and generates higher reproducibility as noted by smaller error bars in FIG. 15A. […]
The AlphaLISA assay for high throughput screening: For screening of a library of chemical compounds, an […] assay was developed and optimized for use in 384-well format (SAMDI Tech, Chicago, Ill.). […] The assay signal (Fluorescence) was measured at 680 nm excitation and 615 nm emission wavelengths to determine assay robustness and DMSO tolerance. […] The plates were read on a Pherastar FS plate reader. […] Those wells were further analyzed to investigate the 8 compounds individually in duplicate.

[3] = tested on: mammospheres derived from human TNBC PDX tumors; experiment: Three-dimensional mammosphere assay (MTT); type: cell-based; settings: Homo sapiens; 5 μM for 48 h
Method: Three-dimensional Mammosphere Assays: The PDX tumor cells were dissociated from the tumor fragments, and cultured for 2-dimensional and mammosphere studies in vitro (Cheriyan et al. (2016) Oncotarget 7, 73370-73388). Briefly, the cells were washed twice in 1×PBS, trypsinized, and pelleted at 200×g at room temperature. Cells were then re-suspended in 5 ml of mammosphere media (DMEM/F12 containing 2 mM L-glutamine, 100 U/ml penicillin, 100 U/ml streptomycin, 1×B27 supplement, 20 ng/ml recombinant human epidermal growth factor (EGF; Sigma), 10 ng/ml recombinant human basic fibroblast growth factor (bFGF; R&D Systems). Approximately 5000 viable cells per ml was then seeded in an ultra-low adherent 60 mm plate and incubated at 37° C. and 5% CO2 for two weeks without disturbing the plates. After the mammospheres formed, fresh media with or without Adriamycin (5 μM), SNI-1 (2.5 or 5.0 μM), or a combination of these agents was added and the cells incubated for additional 48 h at 37° C. and 5% CO2. The mammospheres in the untreated and treated plates were photographed, and the cells were then dissociated to determine their viabilities by the MTT assay (Cheriyan et al. (2016) Oncotarget 7, 73370-73388).

[4] = tested on: p65/RelA activation and phosphorylation of NEMO; experiment: Western blot for canonical NF-κB activation; type: cell-based; settings: single agent, Western blot
Text: (§1) The cells were lysed to prepare protein extracts.

cleaved RIPK1 = experiment: Western blot for RIPK1 cleavage; type: cell-based
Text: as §1

4T1 TNBC tumors = experiment: 4T1 TNBC syngeneic tumor efficacy study in Balb/c mice; type: in vivo, mouse; settings: ELISA of sera
Method: Establishment of TNBC cell-derived xenografts in Syngeneic mice: Generation of 4T1 TNBC cell-derived sub-cutaneous xenografts in Balb/c mice were performed (Cheriyan et al. (2016) Oncotarget 7, 73370-73388; and Cheriyan et al. (2017) Oncotarget 8, 104928-104945). BALB/cAnNCr, 6-8-weeks old, female mice were purchased from Charles River Laboratories (Horsham, Pa.). Following suitable acclimation of animals, 1×10^6 4T1 TNBC cells were re-suspended in 200 μl of sterile saline, and implanted in the flanks using a 27-gauge needle. Tumors were allowed to grow to 500-1000 mg (˜10 days), and the aseptically harvested, minced into 3-4 mm^3 (30 mg) fragments and transplanted SC into naïve recipient mice using a standard 12 gauge trocar to serially maintain the tumor in vivo. For efficacy studies, tumors serially maintained in vivo were aseptically harvested and minced into 3-4 mm^3 (30 mg) fragments, then bilaterally transplanted subcutaneously along the flanks using a standard 12 gauge trocar. […] For the efficacy studies, SNI-1 was formulated in 8% DMSO (v/v) and 8% Cremophor (v/v) in cell grade water, pH4 as diluent.
Clinical grade ADR stock (2 mg/mL) was diluted to the appropriate concentration with cell grade water; pH4 and clinical grade CIS (1 mg/ml) diluted with USP 0.9% saline; pH6). Mice were monitored daily for changes in condition and body weight. Tumors were measured three times weekly by caliper and tumor volume (mg) was calculated using the following formula: (A×B2)/2 where A and B are the tumor length and width (in mm), respectively. […] Efficacy was also assessed quantitatively using tumor growth delay (T−C) defined as the difference between the median time (in days) required for the treatment group tumors (T) to reach 1000 mg and the median time (days) for the control group tumors to reach the same volume. Post last treatment, tumor tissue and samples from various organs (spleen, liver, kidney, heart, bone, and lungs) were collected. Additionally, the whole blood samples were obtained from a representative tumor-bearing mouse from each group via terminal cardiac puncture. Immuno-histochemical analyses of the tumor and tissue samples were performed for expression of activated RelA (serine 536 phosphorylated p65), total RelA, cleaved caspase-3, and CARP-1 proteins. The levels of pro-inflammatory cytokines in the sera were analyzed by sandwich ELISA assays following methods detailed herein (Cheriyan et al. (2016) Oncotarget 7, 73370-73388; and Cheriyan et al. (2017) Oncotarget 8, 104928-104945).

MDR1 = experiment: Levels of drug efflux pump MDR1; type: cell-based, human; settings: MDA-MB-468 cells
Text: Of note is that SNI-1 in combination with Adriamycin provoked a greater inhibition of tumor growth when compared with the tumor growth inhibition noted in animals treated with either agent alone. […] Since TNBCs and many other cancers are often known to express drug efflux pumps that contribute to lower efficacy of drugs in clinic and development of drug-resistant tumors, it is likely that the presence/expression of these drug efflux pumps function in part to interfere with a robust anti-tumor response to a combination of SNI-1 and Adriamycin.

MDA-MB-231 TNBC cells = settings: Wen et al. (2018); read-out: IC50, growth inhibition; cited from earlier work
NEMO (221-260) peptide = molecular target: T2, NEMO (221-260) peptide (Homo sapiens, UniProt Q9Y6K9); experiment: Surface Plasmon Resonance kinetics of CARP-1 peptide binding with NEMO peptide; settings: SPR
T2 construct: host or cells: chemical synthesis
Method: Next, kinetics of CARP-1 binding with NEMO were determined by Surface Plasmon Resonance (SPR) Technology (Profacgen, Shirley, N.Y.). Briefly, CARP-1 (551-580) peptide (Amino terminal-[…]-Carboxyl terminal; SEQ ID NO: 6) was dissolved in water, and various concentrations of CARP-1 Peptide were manually printed onto the bare gold-coated (thickness 47 nm) PlexArray Nanocapture Sensor Chip (Plexera Bioscience, Seattle, Wash., US) at 40% humidity. Each concentration was printed in replicate, and each spot contained 0.2 μL of sample solution. The chip was incubated in 80% humidity at 4° C. for overnight, and rinsed with 10×PBST for 10 min, 1×PBST for 10 min, and deionized water twice for 10 min. The chip was then blocked with 5% (w/v) non-fat milk in water overnight, and washed with 10×PBST for 10 min, 1×PBST for 10 min, and deionized water twice for 10 min before being dried under a stream of nitrogen prior to use. The binding reactions with NEMO (221-260; SEQ ID NO: 7) peptide (Amino terminal-[…]-Carboxyl terminal; SEQ ID NO: 7) were performed in PBST buffer (0.01M phosphate buffered saline (0.138 M NaCl; 0.0027 M KCl), 0.05% Tween-20, pH 7.4). SPRi measurements were performed with PlexAray HT (Plexera Bioscience, Seattle, Wash., US). […] The signal changes after binding and washing (in AU) were recorded as the assay value. Selected protein-grafted regions in the SPR images were analyzed, and the average reflectivity variations of the chosen areas were plotted as a function of time. Real-time binding signals were recorded and analyzed by Data Analysis Module (DAM, Plexera Bioscience, Seattle, Wash., US). […]
Association and dissociation rate constants were calculated by numerical integration and global fitting to a 1:1 interaction model and the equation: dRU(t)/dt=kaC(R^max−RU(t))−kdRU(t), where RU(t) is the response at time t, Rmax is the maximum response, C is the concentration of analyte in solution, ka is the association rate constant, kd is the dissociation rate constant, and RU (0)=0.

T2 sequence (Q9Y6K9 222-261, one chain of several): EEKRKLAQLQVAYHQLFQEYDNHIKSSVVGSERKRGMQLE
T1 sequence (Q8IX12 546-580 limits assumed): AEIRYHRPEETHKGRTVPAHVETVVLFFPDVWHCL

**Q.** For `Cc1ccc(-n2cnnc2SCC(=O)c2ccc(O)c(O)c2)cc1` [GL-208], which “loss of cell viability in combination with Adriamycin versus Adriamycin alone” value (“loss … with Adriamycin versus Adriamycin alone” for short) (MDA-MB-468 TNBC cells) is on record?
**A.** minimal reduction in cell viabilities

**Q.** For `Cc1ccc(-n2cnnc2[S+]([O-])CC(=O)c2ccc(O)c(O)c2)cc1` (centres unmarked) [GL-209], which “loss … with Adriamycin versus Adriamycin alone” value (MDA-MB-468 TNBC cells) is on record?
**A.** loss of cell viabilities that were greater

**Q.** With `Cc1ccc(-n2ccnc2[S+]([O-])CC(=O)c2ccc(O)c(O)c2)cc1` (centres unmarked) [GL-212] as the compound, how does the “loss … with Adriamycin versus Adriamycin alone” value (MDA-MB-468 TNBC cells) read?
**A.** moderate reduction in cell viabilities

**Q.** For `Cc1ccc(-n2ccnc2SCC(=O)c2ccc(O)c(O)c2)cc1` [GL-211], which “loss … with Adriamycin versus Adriamycin alone” value (MDA-MB-468 TNBC cells) is on record?
**A.** minimal reduction in cell viabilities

**Q.** For `O=c1[nH]cc(F)c(=O)[nH]1` [5-FU], which “levels of TNFα, IL-8, and IL-1β in the media” value [1] is on record?
**A.** robust increase

**Q.** For `Cc1ccc(-n2cnnc2S(=O)(=O)CC(=O)c2ccc(O)c(O)c2)cc1` [GL-210], which “loss … with Adriamycin versus Adriamycin alone” value (MDA-MB-468 TNBC cells) is on record?
**A.** minimal reduction in cell viabilities

**Q.** Which IC50 [2] does the source give for `COc1ccc(S(=O)(=O)Nc2ccccc2C(=O)NCCc2ccccc2)cc1` [SNI-2, 2-{((4-methoxyphenyl)sulfonyl)amino}-N-(2-phenylethyl)benzamide] here?
**A.** ~25 µM

**Q.** With `O=C(CSc1nc2ccccc2s1)c1ccc(O)c(O)c1` [GL-215] as the compound, how does the “loss … with Adriamycin versus Adriamycin alone” value (MDA-MB-468 TNBC cells) read?
**A.** moderate reduction in cell viabilities

**Q.** With `Cc1ccc(-n2ccnc2S(=O)(=O)CC(=O)c2ccc(O)c(O)c2)cc1` [GL-213] as the compound, how does the “loss … with Adriamycin versus Adriamycin alone” value (MDA-MB-468 TNBC cells) read?
**A.** loss of cell viabilities that were greater

**Q.** Which “loss … with Adriamycin versus Adriamycin alone” value (MDA-MB-468 TNBC cells) does the source give for `O=C(CSc1nc(-c2ccccc2)cs1)c1ccc(O)c(O)c1` [GL-216] here?
**A.** loss of cell viabilities that were greater

**Q.** For `COc1cccc2c1C(=O)c1c(O)c3c(c(O)c1C2=O)C[C@@](O)(C(=O)CO)C[C@@H]3O[C@H]1C[C@H](N)[C@H](O)[C@H](C)O1` [Adriamycin], which inhibition at 5 µM [3] is on record?
**A.** ~30%

**Q.** And the “p65/RelA activation and phosphorylation of NEMO” value [4]?
**A.** robust increase

**Q.** What about the “expression of cleaved RIPK1” value (cleaved RIPK1) of the same compound?
**A.** induced expression of cleaved RIPK1

**Q.** What about the “levels of TNFα, IL-8, and IL-1β in the media” value [1] of the same compound?
**A.** robust increase

**Q.** What about the “serum levels of TNFα and IL-1β” value (4T1 TNBC tumors) of the same compound?
**A.** robustly stimulated

**Q.** What about the “levels of drug efflux pump MDR1” value (MDR1) of the same compound?
**A.** moderate increase

**Q.** And the IC50 (MDA-MB-231 TNBC cells)?
**A.** ~3 µM

**Q.** For “HRPEETHKGRTVPAHVETVVLFFPDVWHCL [CARP-1 (551-580)]”, which Kd (NEMO (221-260) peptide; chemically synthesized peptides, read-out: equilibrium dissociation constant (KD Value)) is on record?
**A.** 0.102 µM

**Q.** What about the kon (NEMO (221-260) peptide; read-out: Ka (association rate constant)) of the same compound?
**A.** 2070 M⁻¹ s⁻¹

**Q.** What about the koff (NEMO (221-260) peptide; read-out: Kd (dissociation rate constant)) of the same compound?
**A.** 0.000212 s⁻¹
